Like-named read-outs stand apart in the source and are kept apart here.
Experiments:
PDGF-Ra = target: T1, PDGF-Ra (Homo sapiens, UniProt P16234); experiment: Inhibitory activity against PDGF-Ra phosphorylation by PDGF-AA stimulation using G292; type: cell-based; conditions: for IC50: > means inhibition at indicated concentration not more than 50%, < and << not less than 50%, read-out: PDGF (E) IC50
T1 construct: host or cells: G-292 human osteosarcoma cells
How it was run: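 Cells seeded in low-serum medium are exposed to test compound for one hour, then PDGF-AA (50 ng/ml) triggers receptor phosphorylation for 5 min at 37 °C. Phospho-PDGF-Ra in solubilized cells is quantified by anti-phosphotyrosine capture ELISA at 450 nm.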

c-kit = target: T2, c-kit (Homo sapiens, UniProt P10721); experiment: Inhibitory activity against c-kit autophosphorylation (MO7e cells, h-SCF); type: cell-based; conditions: for IC50: MO7e cells, read-out: c-kit IC50; for inhibition at 1 µM: Mo7e, at 1000 nM
T2 construct: MO7e (human megakaryocytic leukemia cell line) which had been arrested for 20 hr; endogenous in cells; host or cells: MO7e human megakaryocytic leukemia cell line
How it was run: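 Ligand-induced c-kit tyrosine phosphorylation is measured in MO7e cells that were quiesced 20 hr and preincubated with compound for 1 hr prior to a 5 min pulse of 50 ng/ml human SCF. Phospho-c-kit is detected by anti-phosphotyrosine capture ELISA, A450.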

T1 sequence (P16234 24-1089): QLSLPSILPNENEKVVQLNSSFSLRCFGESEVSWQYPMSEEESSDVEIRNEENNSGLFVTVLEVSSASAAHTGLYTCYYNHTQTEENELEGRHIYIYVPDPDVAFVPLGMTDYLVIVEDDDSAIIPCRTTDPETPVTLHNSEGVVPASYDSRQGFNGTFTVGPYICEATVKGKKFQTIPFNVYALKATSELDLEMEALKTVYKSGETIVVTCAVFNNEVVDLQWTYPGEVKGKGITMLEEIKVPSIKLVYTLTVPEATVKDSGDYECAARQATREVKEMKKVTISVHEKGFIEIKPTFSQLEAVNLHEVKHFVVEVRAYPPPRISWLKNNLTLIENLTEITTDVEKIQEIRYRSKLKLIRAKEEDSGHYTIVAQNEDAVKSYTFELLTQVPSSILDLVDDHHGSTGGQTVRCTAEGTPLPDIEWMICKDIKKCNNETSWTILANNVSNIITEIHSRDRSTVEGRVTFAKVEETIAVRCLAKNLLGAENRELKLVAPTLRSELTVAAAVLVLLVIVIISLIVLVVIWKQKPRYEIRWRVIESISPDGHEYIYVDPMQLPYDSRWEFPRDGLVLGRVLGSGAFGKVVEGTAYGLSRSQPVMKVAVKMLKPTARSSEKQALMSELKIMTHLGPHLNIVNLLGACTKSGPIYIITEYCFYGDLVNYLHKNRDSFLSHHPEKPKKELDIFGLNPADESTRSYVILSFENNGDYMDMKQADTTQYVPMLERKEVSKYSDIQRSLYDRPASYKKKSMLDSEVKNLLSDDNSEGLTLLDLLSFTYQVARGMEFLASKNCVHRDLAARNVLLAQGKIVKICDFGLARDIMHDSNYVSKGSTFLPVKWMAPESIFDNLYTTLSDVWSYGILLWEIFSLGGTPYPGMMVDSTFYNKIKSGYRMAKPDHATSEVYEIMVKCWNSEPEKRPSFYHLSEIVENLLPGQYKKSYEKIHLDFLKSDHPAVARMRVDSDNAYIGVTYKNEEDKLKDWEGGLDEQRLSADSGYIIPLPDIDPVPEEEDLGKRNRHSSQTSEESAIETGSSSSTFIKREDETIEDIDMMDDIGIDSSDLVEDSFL
T2 sequence (P10721 26-976): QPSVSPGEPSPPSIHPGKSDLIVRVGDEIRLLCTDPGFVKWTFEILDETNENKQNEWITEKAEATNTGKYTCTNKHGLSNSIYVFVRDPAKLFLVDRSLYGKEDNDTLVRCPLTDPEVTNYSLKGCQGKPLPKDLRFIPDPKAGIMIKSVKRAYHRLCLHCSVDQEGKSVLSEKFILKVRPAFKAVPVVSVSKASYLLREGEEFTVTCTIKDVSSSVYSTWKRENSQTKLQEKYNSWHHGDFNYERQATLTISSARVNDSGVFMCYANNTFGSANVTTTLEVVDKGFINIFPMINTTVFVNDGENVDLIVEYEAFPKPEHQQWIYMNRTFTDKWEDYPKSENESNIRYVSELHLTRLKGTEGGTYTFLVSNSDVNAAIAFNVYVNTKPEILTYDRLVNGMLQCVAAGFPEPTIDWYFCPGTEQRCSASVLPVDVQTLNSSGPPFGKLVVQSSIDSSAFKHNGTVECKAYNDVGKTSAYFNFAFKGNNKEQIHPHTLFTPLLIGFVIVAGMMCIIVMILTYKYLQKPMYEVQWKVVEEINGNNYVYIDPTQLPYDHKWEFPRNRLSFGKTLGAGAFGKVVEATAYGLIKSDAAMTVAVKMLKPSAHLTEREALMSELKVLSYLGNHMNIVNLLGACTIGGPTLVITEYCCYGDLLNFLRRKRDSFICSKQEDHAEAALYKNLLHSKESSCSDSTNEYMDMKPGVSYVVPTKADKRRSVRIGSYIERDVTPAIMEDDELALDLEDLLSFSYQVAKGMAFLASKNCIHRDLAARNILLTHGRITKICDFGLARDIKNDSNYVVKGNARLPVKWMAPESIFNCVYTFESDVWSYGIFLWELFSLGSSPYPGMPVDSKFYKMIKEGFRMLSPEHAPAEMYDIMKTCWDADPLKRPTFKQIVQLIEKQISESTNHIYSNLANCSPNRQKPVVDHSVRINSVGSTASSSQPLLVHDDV

Row | IC50 (PDGF-Ra) [nM] | IC50 (PDGF-Ra; Pharmacological Test Example 1) [nM] | IC50 (c-kit; h-SCF 50 ng/ml) [nM] | SMILES | other results
1 | < 10 | – | – | COc1cc2nccc(Oc3ccc(NC(=O)NCCN4CCOCC4)c(C)c3C)c2cc1OC [Example 617, N-{4-[(6,7-Dimethoxy-4-quinolyl)oxy]-2,3-dimethylphenyl}-N′-(2-morpholinoethyl)urea] | IC50 (c-kit; 50 ng/ml h-SCF): 172 nM
2 | – | 28 | 70 | COc1cc2ncnc(Oc3ccc(NC(=O)OCCCOc4cccc(Cl)c4)c(C)c3C)c2cc1OC [Example 212, 3-(3-Chlorophenoxy)propyl N-{4-[(6,7-dimethoxy-4-quinazolinyl)oxy]-2,3-dimethylphenyl}carbamate] | –
3 | < 10 | – | – | COc1cc2nccc(Oc3ccc(NC(=O)NCCN4CCCCC4)c([N+](=O)[O-])c3)c2cc1OC [Example 678, N-{4-[(6,7-Dimethoxy-4-quinolyl)oxy]-2-nitrophenyl}-N′-(2-piperidinoethyl)urea] | IC50 (c-kit; 50 ng/ml h-SCF): 164 nM
4 | – | 15 | 384 | COc1cc2nccc(Oc3cc(C)c(NC(=O)OCCC4CCCCC4)cc3C)c2cc1OC [Example 354, 2-Cyclohexylethyl N-{4-[(6,7-dimethoxy-4-quinolyl)oxy]-2,5-dimethylphenyl}carbamate] | –
5 | – | 35 | 122 | CCC(OC(=O)Nc1ccc(Oc2ccnc3cc(OC)c(OC)cc23)c(C)c1C)c1ccccc1 (stereo not shown) [Example 265, 1-Phenylpropyl N-{4-[(6,7-dimethoxy-4-quinolyl)oxy]-2,3-dimethylphenyl}carbamate] | –
6 | – | 64 | 426 | CCCCC(CCCC)OC(=O)Nc1ccc(Oc2ccnc3cc(OC)c(OC)cc23)cc1 [Example 368, 1-Butylpentyl N-{4-[(6,7-dimethoxy-4-quinolyl)oxy]phenyl}carbamate] | –
7 | – | 74 | 90 | COc1cc2ncnc(Oc3ccc(NC(=O)OCC4CC4)cc3)c2cc1OC [Example 383, Cyclopropylmethyl N-{4-[(6,7-dimethoxy-4-quinazolinyl)oxy]phenyl}carbamate] | –
8 | – | 3 | 178 | CCCC(CC)OC(=O)Nc1ccc(Oc2ccnc3cc(OC)c(OC)cc23)cc1 (stereo not shown) [Example 258, 1-Ethylbutyl N-{4-[(6,7-dimethoxy-4-quinolyl)oxy]phenyl}carbamate] | –
9 | – | 50 | 353 | COc1ccc(COC(=O)Nc2ccc(Oc3ncnc4cc(OC)c(OC)cc34)cc2Cl)cc1OC [Example 66, 3,4-Dimethoxybenzyl N-{2-chloro-4-[(6,7-dimethoxy-4-quinazolinyl)oxy]phenyl}carbamate] | –
10 | – | < 10 | 451 | COc1ccc(OC)c(COC(=O)Nc2ccc(Oc3ncnc4cc(OC)c(OC)cc34)cc2)c1 [Example 70, 2,5-Dimethoxybenzyl N-{4-[(6,7-dimethoxy-4-quinazolinyl)oxy]phenyl}carbamate] | –
11 | – | 11 | 821 | COc1cc2nccc(Oc3ccc(NC(=O)OC(C)c4ccccc4F)cc3)c2cc1OC (stereo not shown) [Example 122, 1-(2-Fluorophenyl)ethyl N-{4-[(6,7-dimethoxy-4-quinolyl)oxy]phenyl}carbamate] | –
12 | – | < 10 | 66 | COc1cc2ncnc(Oc3ccc(NC(=O)OCCC4CCCCC4)cc3)c2cc1OC [Example 356, 2-Cyclohexylethyl N-{4-[(6,7-dimethoxy-4-quinazolinyl)oxy]phenyl}carbamate] | –
13 | 43 | – | – | COc1cc2ncnc(Oc3ccc(NC(=O)NCCN4CCOCC4)c([N+](=O)[O-])c3)c2cc1OC [Example 652, N-{4-[(6,7-Dimethoxy-4-quinazolinyl)oxy]-2-nitrophenyl}-N′-(2-morpholinoethyl)urea] | IC50 (c-kit; 50 ng/ml h-SCF): 115 nM
14 | < 10 | – | – | COc1cc2ncnc(Oc3ccc(NC(=S)NC(=O)C4CCCCC4)cc3)c2cc1OC [Example 1180, N-Cyclohexylcarbonyl-N′-{4-[(6,7-dimethoxy-4-quinazolinyl)oxy]phenyl}thiourea] | IC50 (c-kit; h-SCF stimulation): 480 nM
15 | 36 | – | – | COc1cc(Oc2ncnc3cc(OC)c(OC)cc23)ccc1NC(=O)NCCN1CCCC1 [Example 632, N-{4-[(6,7-Dimethoxy-4-quinazolinyl)oxy]-2-methoxyphenyl}-N′-(2-tetrahydro-1H-1-pyrrolylethyl)urea] | IC50 (c-kit; 50 ng/ml h-SCF): 223 nM
16 | – | 12 | 616 | COc1cc2ncnc(Oc3ccc(NC(=O)OC(C)c4cccc(Cl)c4)c(Cl)c3)c2cc1OC (stereo not shown) [Example 7] | –
17 | > 100 | – | – | COc1cc2nccc(Oc3ccc(NCCOc4c(C)cccc4C)c(C)c3C)c2cc1OC [Example 894, N-{4-[(6,7-Dimethoxy-4-quinolyl)oxy]-2,3-dimethylphenyl}-N-[2-(2,6-dimethylphenoxy)ethyl]amine] | inhibition at 0.1 µM (PDGF-Ra; G292, figure in parentheses in >100( ), at 100 nM, read-out: PDGF (E) inhibition (%) at 100 nM): 49%; inhibition at 1 µM (c-kit; figure in parentheses in −( )): 23%

Row | IC50 (PDGF-Ra) [nM] | IC50 (PDGF-Ra; Pharmacological Test Example 1) [nM] | IC50 (c-kit; h-SCF 50 ng/ml) [nM] | SMILES | other results
18 | – | 4 | 47 | COc1cc2nccc(Oc3ccc(NC(=O)OCc4cccc(Cl)c4)c(C)c3C)c2cc1OC [Example 236, 3-Chlorobenzyl N-{4-[(6,7-dimethoxy-4-quinolyl)oxy]-2,3-dimethylphenyl}carbamate] | –
19 | – | 21 | – | COc1cc2ncnc(Oc3ccc(NC(=O)OC(C)c4ccccc4Cl)cc3)c2cc1OC (stereo not shown) [Example 15, 1-(2-Chlorophenyl)ethyl N-{4-[(6,7-dimethoxy-4-quinazolinyl)oxy]phenyl}carbamate] | inhibition at 1 µM (c-kit; figure in parentheses in −( )): 48%
20 | 81 | – | – | CCCCCC(C)OC(=O)Nc1cc(C)c(Oc2ccnc3cc(OC)c(OC)cc23)cc1C (stereo not shown) [Example 412] | IC50 (c-kit; 50 ng/ml h-SCF): 122 nM
21 | – | 42 | 486 | CCC(OC(=O)Nc1cc(C)c(Oc2ccnc3cc(OC)c(OC)cc23)cc1C)c1ccccc1 (stereo not shown) [Example 264, 1-Phenylpropyl N-{4-[(6,7-dimethoxy-4-quinolyl)oxy]-2,5-dimethylphenyl}carbamate] | –
22 | 67 | – | – | COc1cc2ncnc(Oc3ccc(NC(=O)NC4CCN(CC5CCCCC5)C4)c([N+](=O)[O-])c3)c2cc1OC (stereo not shown) [Example 587, N-[1-(Cyclohexylmethyl)tetrahydro-1H-3-pyrrolyl]-N′-{4-[(6,7-dimethoxy-4-quinazolinyl)oxy]-2-nitrophenyl}urea] | inhibition at 1 µM (c-kit; figure within parentheses in −( ) or >1000( )): 16%
23 | – | < 10 | 85 | COc1cc2nccc(Oc3ccc(NC(=O)OCC4CCCCC4)c(C)c3C)c2cc1OC [Example 285, Cyclohexylmethyl N-{4-[(6,7-dimethoxy-4-quinolyl)oxy]-2,3-dimethylphenyl}carbamate] | –
24 | 25 | – | – | CCCC1CCC(C(=O)NC(=S)Nc2ccc(Oc3ncnc4cc(OC)c(OC)cc34)cc2)CC1 (stereo not shown) [Example 1197, N-{4-[(6,7-Dimethoxy-4-quinazolinyl)oxy]phenyl}-N′-[(4-propylcyclohexyl)carbonyl]thiourea] | IC50 (c-kit; h-SCF stimulation): 219 nM
25 | – | < 10 | 152 | COc1cc2nccc(Oc3ccc(NC(=O)OC(C)c4cccc(F)c4)c(C)c3C)c2cc1OC (stereo not shown) [Example 98, 1-(3-Fluorophenyl)ethyl N-{4-[(6,7-dimethoxy-4-quinolyl)oxy]-2,3-dimethylphenyl}carbamate] | –
26 | – | 40 | 61 | COc1cc2nccc(Oc3cc(C)c(NC(=O)OCCCOc4ccc(F)cc4)cc3C)c2cc1OC [Example 154, 3-(4-Fluorophenoxy)propyl N-{4-[(6,7-dimethoxy-4-quinolyl)oxy]-2,5-dimethylphenyl}carbamate] | –
27 | – | < 10 | 252 | COc1cc2ncnc(Oc3ccc(NC(=O)OC(C)c4ccc(F)cc4)cc3)c2cc1OC (stereo not shown) [Example 105, 1-(4-Fluorophenyl)ethyl N-{4-[(6,7-dimethoxy-4-quinazolinyl)oxy]phenyl}carbamate] | –
28 | 63 | – | – | COc1cc2ncnc(Oc3ccc(NC(=O)NC4CCN(CC5CCCCC5)C4)cc3)c2cc1OC (stereo not shown) [Example 586, N-[1-(Cyclohexylmethyl)tetrahydro-1H-3-pyrrolyl]-N′-{4-[(6,7-dimethoxy-4-quinazolinyl)oxy]phenyl}urea] | IC50 (c-kit; 50 ng/ml h-SCF): 734 nM
29 | – | 24 | 336 | COc1cc2nccc(Oc3cc(C)c(NC(=O)OC(C)c4cccc(Cl)c4)cc3C)c2cc1OC (stereo not shown) [Example 5, 1-(3-Chlorophenyl)ethyl N-{4-[(6,7-dimethoxy-4-quinolyl)oxy]-2,5-dimethylphenyl}carbamate] | –
30 | – | 26 | 375 | CCOc1ccccc1C(C)OC(=O)Nc1ccc(Oc2ccnc3cc(OC)c(OC)cc23)c(C)c1C (stereo not shown) [Example 128, 1-(2-Ethoxyphenyl)ethyl N-{4-[(6,7-dimethoxy-4-quinolyl)oxy]-2,3-dimethylphenyl}carbamate] | –
31 | < 10 | – | – | CCCCC(C)C(=O)NC(=S)Nc1ccc(Oc2ccnc3cc(OC)c(OC)cc23)cc1 (stereo not shown) [Example 1074, N-{4-[(6,7-Dimethoxy-4-quinolyl)oxy]phenyl}-N′-(2-methylhexanoyl)thiourea] | IC50 (c-kit; h-SCF stimulation): 289 nM
32 | – | < 10 | 119 | COc1cc2nccc(Oc3cc(C)c(NC(=O)OCCc4ccccc4)cc3C)c2cc1OC [Example 298, Phenethyl N-{4-[(6,7-dimethoxy-4-quinolyl)oxy]-2,5-dimethylphenyl}carbamate] | –
33 | 55 | – | – | COc1cc2nccc(Oc3ccc(NC(=O)OC4CCCN(C)C4)c(C)c3C)c2cc1OC (stereo not shown) [Example 464, 1-Methyl-3-piperidyl N-{4-[(6,7-dimethoxy-4-quinolyl)oxy]-2,3-dimethylphenyl}carbamate] | IC50 (c-kit; 50 ng/ml h-SCF): 201 nM

From patent US7135466B2 (Kirin Beer Kabushiki Kaisha, priority 1999, dated 2006)
